According to patent publication US20060127894A1, “Protein associated with cell growth, differentiation, and death” (Incyte Corporation, priority 2001, published 2006):

Legend:
[1] = tested on: SEQ ID NO:45 expression in C3A cells; experiment: Microarray expression analysis of steroid-treated versus untreated C3A cells; assay type: cell-based, human
Method: Total RNA is isolated from tissue samples using the guanidinium thiocyanate method and poly(A)^+ RNA is purified using the oligo-(dT) cellulose method. Each poly(A)^+ RNA sample is reverse transcribed using MMLV reverse-transcriptase, 0.05 pg/μl oligo-(dT) primer (21 mer), 1×first strand buffer, 0.03 units/μL RNase inhibitor, 500 μM dATP, 500 μM dGTP, 500 μM dTTP, 40 μM dCTP, 40 μM dCTP-Cy3 (BDS) or dCTP-Cy5 (Amersham Biosciences). The reverse transcription reaction is performed in a […] containing 200 ng poly(A)^+ RNA with GEMBRIGHT kits (Incyte). Specific control poly(A)+ RNAs are synthesized by in vitro transcription from non-coding yeast genomic DNA. After incubation at 37° C. for 2 hr, each reaction sample (one with Cy3 and another with Cy5 labeling) is treated with […] of 0.5M sodium hydroxide and incubated for 20 minutes at 85° C. to the stop the reaction and degrade the RNA. Samples are purified using two successive CHROMA SPIN 30 gel filtration spin columns (CLONTECH Laboratories, Inc. (CLONTECH), Palo Alto Calif.) and after combining, both reaction samples are ethanol precipitated using 1 ml of glycogen (1 mg/ml), 60 ml sodium acetate, and 300 ml of 100% ethanol. The sample is then dried to completion using a SpeedVAC (Savant Instruments Inc., Holbrook N.Y.) and resuspended in 14 μl 5×SSC/0.2% SDS.
Sequences of the present invention are used to generate array elements. Each array element is amplified from bacterial cells containing vectors with cloned cDNA inserts. PCR amplification uses primers complementary to the vector sequences flanking the cDNA insert. Array elements are amplified in thirty cycles of PCR from an initial quantity of 1-2 ng to a final quantity greater than 5 μg. Amplified array elements are then purified using […]-400 (Amersham Biosciences).
Hybridization reactions contain 9 μl of sample mixture consisting of 0.2 μg each of Cy3 and Cy5 labeled cDNA synthesis products in 5×SSC, 0.2% SDS hybridization buffer. The sample mixture is heated to 65° C. for 5 minutes and is aliquoted onto the microarray surface and covered with an 1.8 cm^2 coverslip. The arrays are transferred to a waterproof chamber having a cavity just slightly larger than a microscope slide. The chamber is kept at 100% humidity internally by the addition of 140 μl of 5×SSC in a comer of the chamber. The chamber containing the arrays is incubated for about 6.5 hours at 60° C. The arrays are washed for 10 min at 45° C. in a first wash buffer (1×SSC, 0.1% SDS), three times for 10 minutes each at 45° C. in a second wash buffer (0.1×SSC), and dried.
Reporter-labeled hybridization complexes are detected with a microscope equipped with an Innova 70 mixed gas 10 W laser (Coherent, Inc., Santa Clara Calif.) capable of generating spectral lines at 488 nm for excitation of Cy3 and at 632 nm for excitation of CyS. The excitation laser light is focused on the array using a 20× microscope objective (Nikon, Inc., Melville N.Y.). The slide containing the array is placed on a computer-controlled X-Y stage on the microscope and raster-scanned past the objective. The 1.8 cm×1.8 cm array used in the present example is scanned with a resolution of 20 micrometers.
A grid is superimposed over the fluorescence signal image such that the signal from each spot is centered in each element of the grid. The fluorescence signal within each element is then integrated to obtain a numerical value corresponding to the average intensity of the signal. […]

[2] = cited from earlier work
[3] = tested on: human umbilical vein endothelial cells (HUVECs); conditions: cited from earlier work
[4] = tested on: SEQ ID NO:33 expression in BT-20 cells; experiment: Microarray expression analysis of BT-20 cells treated with EGF; assay type: cell-based, human; conditions: BT-20 breast carcinoma cells
Method: Total RNA is isolated from tissue samples using the guanidinium thiocyanate method and poly(A)^+ RNA is purified using the oligo-(dT) cellulose method. Each poly(A)^+ RNA sample is reverse transcribed using MMLV reverse-transcriptase, 0.05 pg/μl oligo-(dT) primer (21 mer), 1×first strand buffer, 0.03 units/μL RNase inhibitor, 500 μM dATP, 500 μM dGTP, 500 μM dTTP, 40 μM dCTP, 40 μM dCTP-Cy3 (BDS) or dCTP-Cy5 (Amersham Biosciences). The reverse transcription reaction is performed in a […] containing 200 ng poly(A)^+ RNA with GEMBRIGHT kits (Incyte). Specific control poly(A)+ RNAs are synthesized by in vitro transcription from non-coding yeast genomic DNA. […]
Sequences of the present invention are used to generate array elements. […] Array elements are amplified in thirty cycles of PCR from an initial quantity of 1-2 ng to a final quantity greater than 5 μg. […]
Reporter-labeled hybridization complexes are detected with a microscope equipped with an Innova 70 mixed gas 10 W laser (Coherent, Inc., Santa Clara Calif.) capable of generating spectral lines at 488 nm for excitation of Cy3 and at 632 nm for excitation of CyS. […]
A grid is superimposed over the fluorescence signal image such that the signal from each spot is centered in each element of the grid. […]

[5] = dose 10 μM, 1 hour of treatment
[6] = dose 10 μM, 3 hours of treatment

For “6α-methyl-17-hydroxyprogesterone [medroxyprogesterone]”, the “expression of SEQ ID NO:45 increased in drug-treated, as compared to untreated, C3A cells” value (shortened to “expression of SEQ ID NO:45 increased”) [1, 5] is given as “at least two-fold”, the “expression of SEQ ID NO:45 increased” value [1, 6] is given as “at least two-fold” and the “pharmacological activity relative to progesterone” value ([2]; greater than progesterone) is given as “about 15 times”.
For `C[C@H]1C[C@H]2[C@@H]3CCC4=CC(=O)C=C[C@]4(C)[C@@]3(Cl)[C@@H](O)C[C@]2(C)[C@@]1(O)C(=O)CO` [beclomethasone], the “expression of SEQ ID NO:45 increased” value ([1]; dose 1 μM, 3 hours of treatment) was “at least two-fold”, the “expression of SEQ ID NO:45 increased” value [1, 5] was “at least two-fold” and the “expression of SEQ ID NO:45 increased” value [1, 6] was “at least two-fold”. For the same compound, the “anti-inflammatory and vasoconstrictive effects relative to hydrocortisone” value ([2]; intranasal, greater than those produced by hydrocortisone) was 5000 times.
In the case of TNF-α, the “increase of cellular secretions of MCP-1 compared with untreated cells” value [3] is listed as 119 fold.
In the case of “epidermal growth factor: a potent mitogen (NSDSECPLSHDGYCLHDGVCMYIEALDKYACNCVVGYIGERCQYRDLKWWELR; Epidermal growth factor; UniProt P01133 971-1023, looked up)”, the “expression of SEQ ID NO:33 down-regulated on treatment of BT-20 cells” value [4] is reported as “at least two-fold”.
